Experimental data as given in BindingDB's records for patent US12509446 (Rottapharm Biotech, 2025).
pIC50: −log10 of the molar value.

Key:
[1] = biological target: Tyrosine-protein kinase Fyn (Homo sapiens, UniProt P06241); assay: In Vitro Kinase Activity Assay
Method: Table 11: The Fyn kinase inhibitory activity of representative examples of compounds of Formula (1) was evaluated by Z′-LYTE™ Kinase Assay Platform (Invitrogen). Compounds were evaluated towards active Fyn (full length active, molecular weight 87.1 kDa; Invitrogen). […] Samples representing the 0% inhibition (or total enzymatic activity) were in the presence of compound diluent (1% DMSO final in Reaction Buffer 50 mMHepes, 10 mM MgCl2, 1 mM EGTA, 0.01% Brij-35, pH 7.5). The kinase reaction was carried out in a total volume of 10 μl, for 60 minutes at 25° C. The 0% Phosphorylation (i.e. no ATP) and 100% Phosphorylation Assay Controls, included in each plate, allowed to calculate the percent phosphorylation achieved in the specific reaction well. Results are expressed as percentage of inhibition and the IC50 values were calculated by non-linear curve fitting using GraphPad™ Prism software (version 6 for Windows).

[2] = biological target: Vascular endothelial growth factor receptor 2 (Homo sapiens, UniProt P35968); assay: In Vitro Kinase Activity Assay
Method: Table 12: The VEGFR2 kinase inhibitory activity of representative examples of compounds of Formula (I) assays was evaluated in Eurofins Cerep (France). The concentration range of the inhibitors under investigation was from 10−8 M up to 10−5 M final concentration. Some compounds were re-tested in a concentration-range starting from 10−9 M. The results are expressed as a percent of control activity (in the absence of test compound) and the IC50 values were determined by non-linear regression analysis of the inhibition/concentration curves generated with mean replicate values.

Tyrosine-protein kinase Fyn, sequence (P06241 whole entry): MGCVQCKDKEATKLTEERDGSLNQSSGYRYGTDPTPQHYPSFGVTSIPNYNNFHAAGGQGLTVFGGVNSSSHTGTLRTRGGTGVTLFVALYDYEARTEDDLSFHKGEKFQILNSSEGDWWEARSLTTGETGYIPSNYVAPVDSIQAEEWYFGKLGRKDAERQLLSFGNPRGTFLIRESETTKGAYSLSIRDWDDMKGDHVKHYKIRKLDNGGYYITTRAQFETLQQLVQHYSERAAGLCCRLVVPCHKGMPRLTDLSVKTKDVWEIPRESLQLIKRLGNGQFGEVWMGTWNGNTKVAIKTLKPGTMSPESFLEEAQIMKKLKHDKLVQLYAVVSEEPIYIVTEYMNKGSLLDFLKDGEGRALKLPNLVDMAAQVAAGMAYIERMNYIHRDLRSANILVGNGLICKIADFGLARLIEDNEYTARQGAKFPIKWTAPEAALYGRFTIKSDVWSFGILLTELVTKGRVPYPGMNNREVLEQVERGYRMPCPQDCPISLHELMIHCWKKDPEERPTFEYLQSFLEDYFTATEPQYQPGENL
Vascular endothelial growth factor receptor 2, sequence (P35968 whole entry): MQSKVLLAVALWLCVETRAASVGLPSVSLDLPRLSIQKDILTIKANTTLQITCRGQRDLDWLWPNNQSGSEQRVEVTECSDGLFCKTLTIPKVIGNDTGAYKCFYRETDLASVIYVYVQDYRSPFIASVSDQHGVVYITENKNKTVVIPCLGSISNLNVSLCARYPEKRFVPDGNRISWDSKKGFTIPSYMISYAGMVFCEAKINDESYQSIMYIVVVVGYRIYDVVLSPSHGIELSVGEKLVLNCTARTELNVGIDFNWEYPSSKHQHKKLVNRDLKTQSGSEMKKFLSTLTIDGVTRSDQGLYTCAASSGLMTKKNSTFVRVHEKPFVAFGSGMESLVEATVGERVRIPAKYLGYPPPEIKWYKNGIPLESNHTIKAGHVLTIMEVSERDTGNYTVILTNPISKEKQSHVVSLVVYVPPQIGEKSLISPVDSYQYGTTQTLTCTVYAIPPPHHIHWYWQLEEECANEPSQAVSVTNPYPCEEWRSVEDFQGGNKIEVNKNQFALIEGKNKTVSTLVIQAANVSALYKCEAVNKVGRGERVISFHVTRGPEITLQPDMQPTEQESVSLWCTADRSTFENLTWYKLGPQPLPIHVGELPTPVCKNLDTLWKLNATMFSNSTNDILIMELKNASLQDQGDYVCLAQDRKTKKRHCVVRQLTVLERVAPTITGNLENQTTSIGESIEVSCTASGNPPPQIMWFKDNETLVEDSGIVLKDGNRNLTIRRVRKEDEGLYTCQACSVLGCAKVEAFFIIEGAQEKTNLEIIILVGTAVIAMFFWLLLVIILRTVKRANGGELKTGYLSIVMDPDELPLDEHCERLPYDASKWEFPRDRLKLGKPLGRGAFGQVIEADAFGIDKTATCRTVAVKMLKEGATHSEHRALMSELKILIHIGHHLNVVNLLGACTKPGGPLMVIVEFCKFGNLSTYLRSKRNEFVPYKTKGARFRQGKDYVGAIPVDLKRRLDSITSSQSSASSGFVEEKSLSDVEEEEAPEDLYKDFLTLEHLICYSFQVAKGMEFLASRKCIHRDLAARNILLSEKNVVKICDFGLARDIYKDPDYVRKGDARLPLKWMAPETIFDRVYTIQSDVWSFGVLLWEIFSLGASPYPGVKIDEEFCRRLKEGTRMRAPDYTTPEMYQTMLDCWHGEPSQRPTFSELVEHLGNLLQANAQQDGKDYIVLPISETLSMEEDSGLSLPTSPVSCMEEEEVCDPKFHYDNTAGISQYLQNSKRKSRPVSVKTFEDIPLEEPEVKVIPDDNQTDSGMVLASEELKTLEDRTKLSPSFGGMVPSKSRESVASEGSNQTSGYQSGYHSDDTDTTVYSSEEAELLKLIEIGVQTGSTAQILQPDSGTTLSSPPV

Cc1ccc(NC(=O)c2cccc(S(C)(=O)=O)c2)cc1CCc1cc(Nc2cnccn2)[nH]n1 [US12509446, Compound 1]
pIC50 [1]: 7.44 | pIC50 [2]: > 8.00

CCN1CCN(c2cc(Nc3cc(CCc4cc(NC(=O)c5cccc(C(F)(F)F)c5)ccc4F)n[nH]3)nc(C)n2)CC1 [US12509446, Compound 29]
pIC50 [1]: 7.82 | pIC50 [2]: > 8.00

Cc1nc(Nc2cc(CCc3cc(NC(=O)c4cccc(C(F)(F)F)c4)ccc3F)n[nH]2)cc(N2CCN(CCO)CC2)n1 [US12509446, Compound 30]
pIC50 [1]: 8.22 | pIC50 [2]: > 8.00

Cc1nc(Nc2cc(CCc3cc(NC(=O)c4cccc(C(F)(F)F)c4)ccc3F)n[nH]2)cc(N2CC(O)C2)n1 [US12509446, Compound 31]
pIC50 [1]: 8.00 | pIC50 [2]: 7.74

Cc1nc(Nc2cc(CCc3ccc(F)c(NC(=O)c4cccc(C(F)(F)F)c4)c3)n[nH]2)cc(N2CCN(CCO)CC2)n1 [US12509446, Compound 44]
pIC50 [1]: 8.10 | pIC50 [2]: > 8.00

CCN1CCN(c2cc(Nc3cc(CCc4ccc(F)c(NC(=O)c5cccc(C(F)(F)F)c5)c4)n[nH]3)nc(C)n2)CC1 [US12509446, Compound 45]
pIC50 [1]: 7.66 | pIC50 [2]: > 8.00

Cc1nc(Nc2cc(CCc3ccc(F)c(NC(=O)c4cccc(C(F)(F)F)c4)c3)n[nH]2)cc(N2CC(O)C2)n1 [US12509446, Compound 46]
pIC50 [1]: 7.74 | pIC50 [2]: > 8.00
